These results are taken from US8623377B2, “Joint-homing peptides and uses thereof” (University of Maryland, Baltimore, priority 2011, dated 2014).

Test [1] deals with adjuvant arthritis in Lewis rats. Description: Antiarthritic activity in the adjuvant arthritis (AA) model, arthritic score. The format is in vivo, Lewis rat. Here is the method: FIG. 3A: Group of arthritic Lewis rats (n=4 per group) were injected with a peptide (AD, NQR, or RGD) or PBS i.v. on the days indicated by the arrows either at the onset or just after the onset of arthritis. The its were monitored regularly for the disease severity, presented as “arthritic score”. […] The sections were graded for histopathological features associated with arthritis. B, bone; C, cartilage, JS, joint space; SIC, synovium-infiltrating cells.
The synthetic peptide corresponding to the selected phage-encoded peptide was diluted in PBS and injected i.v. into Lewis rats beginning either at the onset or just after the onset of arthritis after Mtb injection. The peptide was injected to rats on alternate days at a dose of 1 or 2 mg/kg body weight. A total of three or four injections were given to each rat. Control animals received an equal volume of PBS. All rats were graded regularly for clinical signs of arthritis (36). The hind paws of these rats were harvested and processed for histopathological examination.
AA was induced in Lewis rats by immunizing them with 1 mg/rat of heat-killed M. tuberculosis H37Ra (Mtb; Difco) in 200 μL of mineral oil (Sigma-Aldrich) via s.c. injection at the base of the tail. Beginning on day 7 after immunization, the rats were observed regularly for signs of arthritis in the paws. The severity of arthritis was evaluated based on erythema and swelling as described previously. The highest score for each paw was 4, and the total maximum score for each rat was 16. The course of AA in the Lewis rat involved the following phases: incubation (days 0-8), onset (days 9-11), peak (days 15-18), and recovery (days 21-27).

In test [2] the test system is leukocyte infiltration into the joints of arthritic rats. Description: In vivo migration of PKH67-labeled leukocytes into the joints. Set-up: species or system Lewis rat.
The subject of test [3] is CD31-expressing endothelial cells from an arthritic rat joint. Nature of the test: Binding of fluorescein-labeled peptide to CD31-expressing endothelial cells from arthritic rat joint. The format is cell-based. Here is the method:
FIG. 2A: Binding of specific phage encoding the peptide NQR or ADK to the vascular endothelium was visualized by immunohistochemical examination of the hind paw section of the rthritic rats using the anti-T7 phage antibody. The binding of phage was tested in the presence or absence of the corresponding synthetic peptide. BV, blood vessel, L, lumen. FIG. 2B: Arthritic rats were injected with specific phage (ADK phage, left; NQR phage, center; or RGD phage, right) in the presence or absence of the corresponding synthetic peptide, and the titer of the phage recovered from the synovial tissue was assessed. *P<0.01. FIG. 2C: CD31-expressing endothelial cells were isolated from arthritic rat joints (upper) or the liver (lower) and stained with DAPI (blue), FITC-labeled peptide NQR (green), or Alexa Fluor 594-labeled anti-rat CD31 antibody (red). Also shown is the staining overlay (merge) of green and red (yellow). The inset is an enlarged view of a single cell; original magnification, 20×. FIG. 2D: LPS-stimulated HUVECs were stained with DAPI and FITC-labeled peptide NQR and observed under a fluorescence microscope, original magnification, 100×. […]

In the case of “CLDNQRPKC (Synthetic peptide homing to joint in an animal) [NQR peptide, joint-homing phage-derived synthetic peptide]”, the “difference in arthritic score versus PBS/ADK” value in test [1] (from day 15 to day 27 (FIG. 3A center)) was “significant”. For the same sequence, the “difference in arthritic score versus PBS” value in test [1] (from day 15 to day 27 (FIG. 3A right)) is given as “significant”. Besides, the “suppression of the arthritic process” value in test [1] (i.v. injection around the time of onset of arthritis, 1 or 2 mg/kg on alternate days) is recorded as “suppressed the arthritic process in a dose-dependent manner”. In addition, the down-modulation of arthritis entry in test [1] (injected just after the onset of AA) is recorded as “effective in down-modulating arthritis”. Also, the “cell type on which the effect on infiltration was more marked” value in test [2] (CD3+ T cells vs CD11b/c+ myeloid cells, flow cytometry) is recorded as “more marked on CD3+ T cells than on CD11b/c+ myeloid cells”. For the same sequence, in test [2] (versus nontreated arthritic or ADK-treated arthritic rats, 24 h after cell transfer), the “leukocyte infiltration into the joints” value is “significantly less leukocyte infiltration”. In addition, the “binding of fluorescein-labeled peptide to joint-derived endothelial cells” value in test [3] (CD31-expressing endothelial cells, arthritic rat joint) is “bound specifically to the joint-derived”. The “colocalization of peptide with CD31” value in test [3] (joint-derived endothelial cells) is listed as “colocalized with CD31”.
